Values of other authors, collected in US10888535B2, “Skin disinfectant composition” (priority 2015, dated 2021).

Row | SMILES | solubility in water
1 | CCCCCCCCNC(=N)NC(=N)NCc1ccc(Cl)c(Cl)c1 [Olanexidine, 1-(3,4-dichlorobenzyl)-5-octylbiguanide] | extremely insoluble in water
2 | CCCCCCCCN=C(N)NC(N)=NCc1ccc(Cl)c(Cl)c1.O=C(O)[C@H](O)[C@@H](O)[C@H](O)[C@H](O)CO [gluconate of olanexidine] | sufficient solubility in water
